We go through three molecules from paper PMC6259456, “Inhibitory Effects of Phylligenin and Quebrachitol Isolated from Mitrephora vulpina on Platelet Activating Factor Receptor Binding and Platelet Aggregation” (Molecules, 2010).

Read-outs that look alike come from different tables or passages of the source.

For orientation: IC50 means the midpoint of a concentration-inhibition curve.

The assay addresses T1, platelet activating factor (PAF) receptor (Oryctolagus cuniculus, UniProt G1TEI7).
T1 construct: gene PTAFR; native receptor on washed rabbit platelets
In words: 3H-PAF radioligand displacement on washed rabbit platelets. Type of assay: cell-based.

T1 sequence (G1TEI7 1-342): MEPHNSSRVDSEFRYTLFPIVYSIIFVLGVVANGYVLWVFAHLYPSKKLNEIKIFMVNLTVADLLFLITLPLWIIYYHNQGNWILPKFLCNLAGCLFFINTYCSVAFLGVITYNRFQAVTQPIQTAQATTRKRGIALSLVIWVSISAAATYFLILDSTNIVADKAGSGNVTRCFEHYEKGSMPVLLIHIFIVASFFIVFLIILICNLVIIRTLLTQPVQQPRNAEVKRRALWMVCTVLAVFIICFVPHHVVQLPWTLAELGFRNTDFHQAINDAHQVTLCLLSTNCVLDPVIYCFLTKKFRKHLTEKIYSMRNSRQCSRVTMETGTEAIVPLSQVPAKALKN

As to `C[C@@H]1CC[C@H]2C(C)(C)[C@H]3C[C@@]12CC[C@@]3(C)O` [cedrol, reference compound], the IC50 (read-out: IC50) is 10.6 µM. Turning to `COc1cc([C@H]2OC[C@H]3[C@@H]2CO[C@H]3c2ccc(OC)c(OC)c2)ccc1O` [phylligenin], the half-maximal inhibitory concentration (IC50) was 13.1 µM.

For the molecule `CO[C@H]1[C@H](O)[C@@H](O)[C@H](O)[C@H](O)[C@H]1O` [quebrachitol, 2-O-methyl-L-chiro-inositol], the IC50 (read-out: IC50) stood at 42.2 µM.
